Results published in article PMC4321816 (Chemistry & biology, 2011).
Substitutions are numbered along the chain they refer to.

Assays:
[1] = biological target: T1, PhnA (phosphonoacetate hydrolase; PhnA-N-His) (Sinorhizobium meliloti, UniProt Q92UV8); experiment: co-crystal structure, […] Å; assay type: binding; settings: covalent; transition state mimic on Thr68, di-zinc active site
T1 sequence (Q92UV8 1-424): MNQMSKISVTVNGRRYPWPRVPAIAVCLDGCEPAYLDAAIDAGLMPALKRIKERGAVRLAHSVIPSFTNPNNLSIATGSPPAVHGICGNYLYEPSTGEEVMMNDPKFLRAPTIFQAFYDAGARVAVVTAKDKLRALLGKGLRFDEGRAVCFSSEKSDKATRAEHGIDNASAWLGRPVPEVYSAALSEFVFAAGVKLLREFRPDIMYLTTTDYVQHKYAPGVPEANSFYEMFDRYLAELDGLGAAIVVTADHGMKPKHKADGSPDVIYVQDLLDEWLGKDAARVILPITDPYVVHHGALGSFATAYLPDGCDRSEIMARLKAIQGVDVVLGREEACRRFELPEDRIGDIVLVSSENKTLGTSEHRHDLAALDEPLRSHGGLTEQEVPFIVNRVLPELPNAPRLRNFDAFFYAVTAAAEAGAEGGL

[2] = biological target: T2, PhnA (phosphonoacetate hydrolase; PhnA-N-His) (Sinorhizobium meliloti, UniProt Q92UV8, T68A); experiment: co-crystal structure, […] Å; assay type: binding; settings: with 2 mM ZnCl2; active site, phosphonate at M2, carboxylate at M1
T2 sequence (Q92UV8 1-424 T68A): T1 sequence (Q92UV8 1-424) with T68A

[3] = biological target: T1, PhnA (phosphonoacetate hydrolase; PhnA-N-His); settings: formed by turnover of phosphonoacetate; bidentate to metal M1

SMILES: [O]=[V]([OH])([OH])[OH] [vanadate]
- co-crystal structure, 1.8 Å (Table 1) [1]: we have determined the co-crystal structure of a covalent complex with orthovanadate

SMILES: O=C(O)CP(=O)(O)O [phosphonoacetate]
- co-crystal structure, 2.0 Å [2]: Crystals for the T68A mutant showed robust density for PnA in the active site

SMILES: CC(=O)O [acetate]
- crystal structure, 2.0 Å, crystals soaked with phosphonoacetate [3]: electron density consistent with an acetate ion bound to the M1 metal ion
